Test [1] addresses T1, Bifunctional epoxide hydrolase 2 (Homo sapiens, UniProt P34913).
T1 sequence (P34913 whole entry): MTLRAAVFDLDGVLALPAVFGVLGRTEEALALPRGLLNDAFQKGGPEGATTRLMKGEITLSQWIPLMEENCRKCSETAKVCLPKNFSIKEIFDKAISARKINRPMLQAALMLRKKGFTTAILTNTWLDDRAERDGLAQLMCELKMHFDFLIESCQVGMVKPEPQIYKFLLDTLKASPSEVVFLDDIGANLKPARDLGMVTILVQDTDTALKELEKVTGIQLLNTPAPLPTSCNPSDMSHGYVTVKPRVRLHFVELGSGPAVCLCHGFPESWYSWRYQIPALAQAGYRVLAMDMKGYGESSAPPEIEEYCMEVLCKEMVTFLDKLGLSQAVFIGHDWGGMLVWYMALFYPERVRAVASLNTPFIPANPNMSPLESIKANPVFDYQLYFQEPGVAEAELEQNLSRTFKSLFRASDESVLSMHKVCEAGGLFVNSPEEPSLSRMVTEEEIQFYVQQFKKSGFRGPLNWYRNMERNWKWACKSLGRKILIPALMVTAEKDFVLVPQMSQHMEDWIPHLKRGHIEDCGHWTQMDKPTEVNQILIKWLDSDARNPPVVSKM
Briefly: Inhibition of human recombinant sEH.

In test [2] the test system is Mus musculus. Briefly: Anti-inflammatory activity against Carrageenan-induced paw edema in mouse model assessed as inhibition of edema at 100 mg/kg measured after 3 hrs relative to control. It is filed as functional. Set-up: scale not given: the % may be the effect or the level left. On the technique in general: The carrageenan paw model is a standard test of acute inflammation.

Test [3] deals with Rattus norvegicus. Briefly: Anti-inflammatory activity in Carageenan-induced foot paw edema in Swiss albino rat assessed as reduction in volume of paw edema measured after 6 hr relative to control. In kind it is functional. Set-up: scale not given: the % may be the effect or the level left.
Test [4] has as its system Rattus norvegicus. The experiment in a line: Anti-inflammatory activity in Carageenan-induced foot paw edema in Swiss albino rat assessed as reduction in volume of paw edema measured after 2 hr relative to control. In kind it is functional. More on the design: scale not given: the % may be the effect or the level left.
Test [5] relates to Rattus norvegicus. Briefly: Anti-inflammatory activity against Carrageenan-induced paw edema in Wistar albino rat ulcerogenic activity assessed as reduction in severity index. In kind it is functional.
The test system of test [6] is Rattus norvegicus. Briefly: Anti-inflammatory activity against Carrageenan-induced paw edema in PO dosed Wistar albino rat assessed as inhibition of edema measured after 1 hr relative to control. In kind it is functional. More on the design: scale not given: the % may be the effect or the level left.
The subject of test [7] is Rattus norvegicus. Briefly: Anti-inflammatory activity against Carrageenan-induced paw edema in PO dosed Wistar albino rat assessed as inhibition of edema measured after 2 hr relative to control. In kind it is functional. More on the design: scale not given: the % may be the effect or the level left.
For test [8], the system named is Rattus norvegicus. Briefly: Anti-inflammatory activity in Carrageenan-induced paw edema in Wistar albino rat assessed as reduction in paw edema measured after 2 hr relative to control. It is filed as functional. More on the design: scale not given: the % may be the effect or the level left.
Test [9] concerns Rattus norvegicus. Briefly: Anti-inflammatory activity in Carageenan-induced paw edema Wistar rat model assessed as reduction in paw edema volume relative to control. In kind it is functional. Set-up: scale not given: the % may be the effect or the level left.
For test [10], the system named is Rattus norvegicus. Briefly: Anti-ulcerative activity in aspirin induced Wistar rat ulcer model assessed as inhibition of ulcer index at 20 mg/kg,po. It is filed as functional.
The subject of test [11] is Rattus norvegicus. The experiment in a line: Anti-inflammatory activity against Carrageenan-induced paw edema in PO dosed Wistar albino rat assessed as inhibition of edema measured after 4 hr relative to control. In kind it is functional. Set-up: scale not given: the % may be the effect or the level left.
Test [12] has as its system Rattus norvegicus. The experiment in a line: Anti-inflammatory activity in Carrageenan-induced paw edema in Wistar albino rat assessed as inhibition of edema measured after 3 hrs relative to control. In kind it is functional.
Test [13] concerns Rattus norvegicus. The experiment in a line: Anti-inflammatory activity in Carrageenan-induced paw edema in PO dosed Swiss albino rat model at 30 mg/kg assessed as inhibition in volume of edema measured after 1 hrs relative to control. It is filed as functional.
In test [14] the test system is Rattus norvegicus. Briefly: Anti-inflammatory activity in Carageenan-induced foot paw edema in Swiss albino rat assessed as reduction in volume of paw edema measured after 1 hr relative to control. In kind it is functional. Set-up: scale not given: the % may be the effect or the level left.
The subject of test [15] is Rattus norvegicus. Briefly: Anti-inflammatory activity in Carrageenan-induced paw edema in Wistar albino rat assessed as reduction in paw edema measured after 3 hr relative to control. In kind it is functional. More on the design: scale not given: the % may be the effect or the level left.
Test [16] has as its system Rattus norvegicus. Briefly: Anti-inflammatory activity in Carrageenan-induced paw edema in Wistar albino rat assessed as reduction in paw edema measured after 1 hr relative to control. It is filed as functional. Set-up: scale not given: the % may be the effect or the level left.
Test [17] concerns Rattus norvegicus. Briefly: Anti-inflammatory activity in Carageenan-induced foot paw edema in Swiss albino rat assessed as reduction in volume of paw edema measured after 4 hr relative to control. It is filed as functional. More on the design: scale not given: the % may be the effect or the level left.
For test [18], the system named is Mus musculus. Briefly: Anti-inflammatory activity in Carrageenan-induced paw edema in PO dosed mouse at 100 mg/kg assessed as inhibition of edema measured after 3 hr relative to control. Set-up: scale not given: the % may be the effect or the level left. It is filed as functional.
For test [19], the system named is Rattus norvegicus. Briefly: Analgesic activity in Carrageenan- induced paw edema in PO dosed Swiss albino rat assessed as protection of hind paw measured after 2 hrs at 20 mg/kg relative to control. It is filed as functional.
Test [20] has as its target Prostaglandin G/H synthase 1 (Homo sapiens, UniProt P23219). Briefly: Inhibition of COX-1 (unknown origin) at 40 uM relative to control.
The target of test [21] is T2, Prostaglandin G/H synthase 2 (Homo sapiens, UniProt P35354).
T2 sequence (P35354 whole entry): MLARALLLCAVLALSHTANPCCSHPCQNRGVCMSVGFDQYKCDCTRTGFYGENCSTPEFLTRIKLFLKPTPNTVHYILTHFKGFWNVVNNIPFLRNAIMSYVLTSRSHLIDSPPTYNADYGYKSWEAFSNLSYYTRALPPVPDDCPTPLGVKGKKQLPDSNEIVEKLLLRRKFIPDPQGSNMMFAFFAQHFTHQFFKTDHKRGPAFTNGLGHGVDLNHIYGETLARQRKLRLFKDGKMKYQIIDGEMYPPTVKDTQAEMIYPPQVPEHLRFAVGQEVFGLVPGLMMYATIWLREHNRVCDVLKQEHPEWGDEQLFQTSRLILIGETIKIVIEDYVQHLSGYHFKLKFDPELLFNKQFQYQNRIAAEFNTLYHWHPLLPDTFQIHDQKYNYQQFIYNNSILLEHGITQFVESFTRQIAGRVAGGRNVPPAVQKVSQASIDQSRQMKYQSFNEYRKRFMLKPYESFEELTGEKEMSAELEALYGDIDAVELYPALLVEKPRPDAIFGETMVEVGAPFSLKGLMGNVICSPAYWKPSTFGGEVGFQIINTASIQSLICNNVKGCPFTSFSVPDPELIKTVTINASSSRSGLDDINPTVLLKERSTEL
The experiment in a line: Inhibition of COX-2 (unknown origin) at 10 uM.

Test [22] deals with Mus musculus. The experiment in a line: Anti-inflammatory activity in Carrageenan-induced paw edema mouse model assessed as inhibition of granuloma measured after 24 hrs relative to control. It is filed as functional.
The test system of test [23] is Rattus norvegicus. The experiment in a line: Anti-inflammatory activity against formalin-induced foot paw edema in Wistar rat at 5 mg/kg, po assessed as inhibition of edema measured after 4 hr relative to control. It is filed as functional.
Test [24] addresses T2, Prostaglandin G/H synthase 2. The experiment in a line: Inhibition of COX-2 (unknown origin) assessed as inhibition at 10 uM.

Usually IC50 stands for the point on the concentration scale where inhibition reaches its midpoint. Usually inhibition in vivo stands for the percentage by which the read-out fell short of the control.

Chain of Prostaglandin G/H synthase 1 (P23219 whole entry): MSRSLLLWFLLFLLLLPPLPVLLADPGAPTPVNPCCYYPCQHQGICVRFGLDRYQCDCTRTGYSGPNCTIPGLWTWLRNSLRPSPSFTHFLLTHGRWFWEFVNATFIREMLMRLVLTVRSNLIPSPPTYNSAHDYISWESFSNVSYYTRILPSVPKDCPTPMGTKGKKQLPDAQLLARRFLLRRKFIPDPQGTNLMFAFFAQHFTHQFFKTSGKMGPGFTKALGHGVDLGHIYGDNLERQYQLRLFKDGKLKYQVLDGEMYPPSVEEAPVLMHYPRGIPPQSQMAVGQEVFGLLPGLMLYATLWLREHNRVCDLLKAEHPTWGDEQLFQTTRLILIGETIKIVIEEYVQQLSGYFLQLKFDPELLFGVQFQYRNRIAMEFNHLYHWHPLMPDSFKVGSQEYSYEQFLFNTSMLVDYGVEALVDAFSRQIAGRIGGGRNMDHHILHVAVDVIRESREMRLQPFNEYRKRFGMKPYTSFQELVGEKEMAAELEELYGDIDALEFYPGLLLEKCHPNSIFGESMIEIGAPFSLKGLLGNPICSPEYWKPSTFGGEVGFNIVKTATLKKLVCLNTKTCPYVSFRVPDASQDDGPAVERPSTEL

On to `O=C(O)c1ccc(CSc2nc3cc(F)c(-c4ncn[nH]4)cc3[nH]2)cc1`, for which, in [1], the IC50 is 700 nM. The Activity in the test on Mus musculus [2] was 66.3%.

Turning to `COc1ccc2c(c1)c(CC(=O)O)c(C)n2C(=O)c1ccc(Cl)cc1` [INDOMETHACIN], the Activity with Rattus norvegicus [3] is 85.9%; in the test with Rattus norvegicus [4], 56.8%; in the test with Rattus norvegicus [5] it was 1.96 mm; in the test on Rattus norvegicus [6], 40%; in the test on Rattus norvegicus [7], 28.89%; in the test on Rattus norvegicus [8], 50.81%. In addition, the Activity in the test on Rattus norvegicus [9] was 79.41%; in the test with Rattus norvegicus [11], 30.95%; in the test with Rattus norvegicus [14] it was 43.3%; in the test on Rattus norvegicus [15], 57.79%; with Rattus norvegicus [16], 33.15%; in the test on Rattus norvegicus [17], 74.56%. Further, the Activity in the test on Mus musculus [18] stood at 47.76%. Also, the UI with Rattus norvegicus [10] was 20.2. Further, the “inhibition (INH)” value in the test with Rattus norvegicus [12] is given as 86.7%. For the same compound, the inhibition in vivo at 30 mg/kg in the test with Rattus norvegicus [13] amounted to 71.2%.

Take `CC1=NN(c2ccc(F)cc2)C(=O)/C1=N\Nc1ccc(-c2nc3ccccc3[nH]2)cc1`: the Activity in the test on Rattus norvegicus [19] is 65%.

Regarding `COc1ccc(/C=C2/SC(=S)C(Nc3nc4c(cnn4-c4ccccc4)c(=O)n3-c3ccccc3)C2=O)cc1OC` (centres undefined), the IC50 in [20] amounted to 3540 nM; in test [21], 780 nM; in test [24], 370 nM. In the test with Mus musculus [22], the “inhibition (INH)” value was 38.2%. For the same compound, the inhibition in vivo at 5 mg/kg in the test with Rattus norvegicus [23] was 57.4%.

For the origin of these results see ChEMBL document CHEMBL5233249, “Recent advancements in the development of heterocyclic anti-inflammatory agents” (Eur J Med Chem, 2020).
